# Results as given in publication PMC8280778, “^18F-ASEM Imaging for Evaluating Atherosclerotic Plaques Linked to α7-Nicotinic Acetylcholine Receptor” (Frontiers in Bioengineering and Biotechnology, 2021).
# Like-named read-outs stand apart in the source and are kept apart here.
# Key:
# α7nAChR [1] = biological target: α7nAChR (Mus musculus, UniProt P49582)
# Experimental: ApoE^–/– mice (n = 4; weight, 25–30 g) and normal mice (n = 4; weight, 25–30 g) were randomly selected; the chosen ApoE^–/– mice were fed with 21% fat and 0.15% cholesterol supplement for 11–12 weeks.
# The high-performance liquid chromatography (HPLC)-purified ^18F-ASEM [[…], dissolved in 0.2 ml normal saline, containing 5% dimethyl sulfoxide (DMSO)] was injected into tail vein of ApoE^–/– mice and normal mice. ApoE^–/– mice, positioned prone position, were anesthetized (1–2% isoflurane) through inhalation. After anesthesia, mice were injected with 5.56 MBq (150 μCi) ^18F-ASEM through the tail vein and underwent a dynamic imaging for 1 h. Dynamic PET scanning were carried out at 5, 10, 15, 30, and 60 min after injection, and biological distributions were analyzed as previously described by our group ([Wang et al., 2021]). Briefly, the regions of interest (ROIs) were cycled from 3D ordered subset expectation maximization (OSEM 3D) reconstruction images, then % ID/g value was calculated by Inveon Research Workplace 4.0 (IRW4.0).
# [2] = biological distribution of the tracer in normal mice (dynamic PET); assay type: in vivo
# α7nAChR [3] = test system: α7nAChR; set-up: method as in Gao et al., 2013; Wang et al., 2018; details: specificity for α7nAChR; ref Gao et al., 2013; Wang et al., 2018; cited from earlier work
# α7nAChR [4] = biological target: T1, α7nAChR (Oryctolagus cuniculus, UniProt A0A0H4CUK0); assay: PET/CT imaging of abdominal aorta atherosclerotic plaques in New Zealand rabbits; assay type: in vivo; details: model rabbits, PET/CT 30 min after injection
# T1 construct: from tissue; host or cells: living New Zealand rabbits (abdominal aorta with atherosclerotic plaques)
# T1 sequence (A0A0H4CUK0 25-504): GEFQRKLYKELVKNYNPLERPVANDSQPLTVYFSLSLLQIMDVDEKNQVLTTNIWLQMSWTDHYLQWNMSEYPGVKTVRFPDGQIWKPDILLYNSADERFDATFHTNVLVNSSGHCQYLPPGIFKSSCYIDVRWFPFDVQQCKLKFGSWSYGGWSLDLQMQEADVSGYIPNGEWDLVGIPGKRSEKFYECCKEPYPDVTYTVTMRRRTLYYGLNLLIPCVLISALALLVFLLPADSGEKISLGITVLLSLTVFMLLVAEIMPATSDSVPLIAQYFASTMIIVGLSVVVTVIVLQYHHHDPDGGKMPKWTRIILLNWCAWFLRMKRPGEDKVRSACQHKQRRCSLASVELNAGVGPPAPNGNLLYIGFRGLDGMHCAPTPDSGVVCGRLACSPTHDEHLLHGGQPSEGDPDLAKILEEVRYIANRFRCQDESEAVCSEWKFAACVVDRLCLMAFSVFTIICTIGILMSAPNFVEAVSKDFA
# Experimental: New Zealand rabbits (n = 4; weight, 2.5–3.0 kg) were fed with high-fat diet for 14 weeks. The balloon-sprained and injured experiment was carried out at the third week after 2 weeks of high-fat diet. First, rabbits were anesthetized by 10% chloral hydrate, a 3-cm incision was conducted in the right inguinal area to expose the right femoral artery; then, the right femoral artery was punctured by Seldinger technique. Second, an angiographic catheter with double lumen balloon was sent to the aortic arch under fluoroscopy. Third, the balloon was bulged and pulled down to the bifurcation of the distal iliac artery of the abdominal aorta for three times. Lastly, the catheter and sheath were removed, and the operational incisions were sutured (Figure 2).
# First, rabbits (n = 4) were anesthetized by 10% chloral hydrate (2 ml/kg). Then, ^18F-ASEM solution (74 MBq in 0.2 ml normal saline) was injected into the right ear vein of rabbits. After that, the imaging procedure was conducted 30 min after injection of ^18F-ASEM and lasted for 10 min performed by PET/CT (Discovery IQ 2.0 GE). The injection of ^18F-FDG (74 MBq in 0.2 ml normal saline) and PET/CT imaging were performed in the same strategy on the next day. The reconstruction mode was super iterative. The % ID/g value was worked out in the same protocol as mentioned above through IRW 4.0 software.
# α7nAChR [5] = biological target: α7nAChR; set-up: method as in Gao et al., 2013; Wang et al., 2018; details: affinity for α7nAChR; ref Gao et al., 2013; Wang et al., 2018; cited from earlier work
# α7nAChR (Mus musculus, UniProt P49582), sequence (P49582 23-502): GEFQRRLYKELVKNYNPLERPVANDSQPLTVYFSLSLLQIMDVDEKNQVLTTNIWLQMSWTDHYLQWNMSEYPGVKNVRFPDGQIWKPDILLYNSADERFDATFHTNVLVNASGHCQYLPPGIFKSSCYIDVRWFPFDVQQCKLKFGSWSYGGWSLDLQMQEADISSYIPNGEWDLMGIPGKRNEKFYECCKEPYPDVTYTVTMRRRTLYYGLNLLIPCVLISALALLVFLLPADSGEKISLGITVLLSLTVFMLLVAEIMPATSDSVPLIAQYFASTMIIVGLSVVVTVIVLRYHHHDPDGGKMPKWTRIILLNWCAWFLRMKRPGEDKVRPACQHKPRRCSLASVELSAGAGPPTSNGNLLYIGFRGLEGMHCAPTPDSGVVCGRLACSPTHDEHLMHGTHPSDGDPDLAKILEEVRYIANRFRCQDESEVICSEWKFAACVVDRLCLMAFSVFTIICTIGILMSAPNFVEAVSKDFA
molecule,measurement,setting,value
O=S1(=O)c2cc(N3CCN4CCC3CC4)ccc2-c2cccc([18F])c21 [^18F-ASEM],uptake in the arteries,α7nAChR [1]; ApoE–/– mice,4.05 ± 0.64 ID%/g
same,uptake in the arteries,"α7nAChR [1]; ApoE–/– mice, 5 min after injection",4.39 ± 1.08 ID%/g
same,uptake in the arteries,"α7nAChR [1]; ApoE–/– mice, 15 min after injection",4.20 ± 0.46 ID%/g
same,uptake in the arteries,"α7nAChR [1]; ApoE–/– mice, 60 min after injection",3.80 ± 0.43 ID%/g
same,uptake in the carotid artery (PET imaging),α7nAChR [1]; ApoE–/– mouse,more ^18F-ASEM gathering
same,uptake in the arteries,α7nAChR [1]; control group mice,2.40 ± 0.41 ID%/g
same,uptake in the arteries,"α7nAChR [1]; control group mice, 5 min after injection",2.35 ± 0.58 ID%/g
same,uptake in the arteries,"α7nAChR [1]; control group mice, 15 min after injection",2.46 ± 0.34 ID%/g
same,uptake in the arteries,"α7nAChR [1]; control group mice, 60 min after injection",2.70 ± 0.28 ID%/g
same,PET signal in the normal group,α7nAChR [1]; normal mice,no signal
same,time of peak uptake in the kidney,[2]; after injection,5 min
same,time of peak uptake in the liver,[2]; after injection,15 min
same,uptake in the muscle,[2]; compared with other organs,lowest uptake
same,BPND,α7nAChR [3],3.9–6.6
same,uptake in plaques at abdominal arterial scratches zones,α7nAChR [4],remarkable uptake
O=S1(=O)c2cc(N3CCN4CCC3CC4)ccc2-c2cccc(F)c21 [^18F-ASEM],Ki,α7nAChR [5],0.4 nM
^18F-FDG,uptake in the carotid artery (PET imaging),"α7nAChR [1]; mouse, in vivo",slight
